According to ChEMBL document CHEMBL5385906, “Discovery of a Potent, Selective, and Orally Bioavailable Tool Compound for Probing the Role of Lysophosphatidic Acid Type 2 Receptor Antagonists in Fibrotic Disorders” (J Med Chem, 2023):

Tests used:
in vitro [1] = conditions: human, liver microsomes, CLH
Description: Intrinsic clearance in human liver microsomes at 0.5 uM in presence of NADPH regenerating system measured for 45 mins per mg protein by LC-MS/MS analysis

[2] = Protein binding in human plasma assessed as fraction unbound at 0.5 uM measured after 5 hrs by LC-MS/MS analysis
[3] = Protein binding in mouse lungs assessed as fraction unbound at 5 uM measured after 5 hrs by LC-MS/MS analysis
in vivo [4] = conditions: C57BL/6J, mouse, po, 26.5 mg/kg
Description: Oral absorption in C57BL/6J mouse at 26.5 mg/kg by LC-MS/MS analysis

in vivo [5] = conditions: C57BL/6J, mouse, lung, po, 26.5 mg/kg
Description: Total AUC last in C57BL/6J mouse lungs at 26.5 mg/kg, po and 2 mg/kg, iv by LC-MS/MS analysis

[6] = Protein binding in mouse plasma assessed as fraction unbound at 0.5 uM measured after 5 hrs by LC-MS/MS analysis
in vivo [7] = conditions: C57BL/6J, mouse, plasma, po, 26.5 mg/kg
Description: Total AUC last in C57BL/6J mouse plasma at 26.5 mg/kg, po and 2 mg/kg, iv by LC-MS/MS analysis

in vivo [8] = conditions: C57BL/6J, mouse, lung, po, 26.5 mg/kg; remark: listed apart in the source
Description: Total Cmax in C57BL/6J mouse lungs at 26.5 mg/kg, po and 2 mg/kg, iv by LC-MS/MS analysis

in vivo [9] = conditions: C57BL/6J, mouse, plasma, po, 26.5 mg/kg; remark: listed apart in the source
Description: Total Cmax in C57BL/6J mouse plasma at 26.5 mg/kg, po and 2 mg/kg, iv by LC-MS/MS analysis

[10] = target: Lysophosphatidic acid receptor 2 (Mus musculus, UniProt Q9JL06); assay: Antagonist activity at mouse LPA2 receptor expressed in HeLa cells assessed as inhibition of LPA-induced calcium mobilization pretreated for 15 mins followed by LPA stimulation by FLIPR analysis; assay type: functional, cell-based; conditions: read-out: pIC50 (converted)
Lysophosphatidic acid receptor 2 (Mus musculus, UniProt Q9JL06), sequence (Q9JL06 whole entry): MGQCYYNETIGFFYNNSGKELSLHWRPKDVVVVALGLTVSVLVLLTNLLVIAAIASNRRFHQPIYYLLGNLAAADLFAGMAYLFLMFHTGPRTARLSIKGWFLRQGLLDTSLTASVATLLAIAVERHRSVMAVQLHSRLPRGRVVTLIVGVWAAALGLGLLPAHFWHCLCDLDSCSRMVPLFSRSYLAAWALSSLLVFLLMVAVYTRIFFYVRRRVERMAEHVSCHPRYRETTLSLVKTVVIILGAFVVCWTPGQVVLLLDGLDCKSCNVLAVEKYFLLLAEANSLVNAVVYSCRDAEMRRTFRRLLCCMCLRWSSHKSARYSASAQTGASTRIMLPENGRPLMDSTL

in vivo [11] = conditions: C57BL/6J, mouse, po, 26.5 mg/kg; remark: listed apart in the source
Description: Half life in C57BL/6J mouse at 26.5 mg/kg, po and 2 mg/kg, iv by LC-MS/MS analysis

[12] = target: Lysophosphatidic acid receptor 1 (Homo sapiens, UniProt Q92633)
Lysophosphatidic acid receptor 1, sequence (Q92633 whole entry): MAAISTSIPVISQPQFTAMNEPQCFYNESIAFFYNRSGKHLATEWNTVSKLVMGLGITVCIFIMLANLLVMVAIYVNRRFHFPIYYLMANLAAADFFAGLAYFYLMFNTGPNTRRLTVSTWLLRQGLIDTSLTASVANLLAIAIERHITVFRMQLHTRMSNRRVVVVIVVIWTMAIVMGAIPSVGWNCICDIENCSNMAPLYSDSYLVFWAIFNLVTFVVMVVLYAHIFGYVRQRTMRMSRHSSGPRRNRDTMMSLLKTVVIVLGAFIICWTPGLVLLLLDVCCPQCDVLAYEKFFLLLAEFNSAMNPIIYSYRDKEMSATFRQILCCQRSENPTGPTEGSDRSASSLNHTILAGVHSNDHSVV
Description: Antagonist activity at human LPA1 receptor expressed in CHO cells assessed as inhibition of LPA-induced calcium mobilization pretreated for 15 mins followed by LPA stimulation by FLIPR analysis

[13] = Efflux ratio of apparent permeability across apical to basolateral to basolateral to apical side in human Caco-2 cells at 10 uM measured after 60 mins by LC-MS/MS analysis
in vitro [14] = conditions: C57BL/6J, mouse, liver microsomes
Description: Intrinsic clearance in C57BL/6J mouse liver microsomes at 0.5 uM in presence of NADPH regenerating system measured for 45 mins per mg protein by LC-MS/MS analysis

[15] = target: Lysophosphatidic acid receptor 2 (Homo sapiens, UniProt Q9HBW0)
Lysophosphatidic acid receptor 2 (Homo sapiens, UniProt Q9HBW0), sequence (Q9HBW0 whole entry): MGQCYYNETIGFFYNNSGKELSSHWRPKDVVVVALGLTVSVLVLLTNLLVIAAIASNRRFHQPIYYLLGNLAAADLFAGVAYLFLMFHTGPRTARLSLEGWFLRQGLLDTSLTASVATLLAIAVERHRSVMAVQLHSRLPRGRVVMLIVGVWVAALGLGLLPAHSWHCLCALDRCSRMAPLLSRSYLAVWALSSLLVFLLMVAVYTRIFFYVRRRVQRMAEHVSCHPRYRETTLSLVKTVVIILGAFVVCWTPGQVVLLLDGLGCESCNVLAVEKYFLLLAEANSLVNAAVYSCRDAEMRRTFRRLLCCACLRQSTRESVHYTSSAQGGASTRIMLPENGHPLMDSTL
Description: Antagonist activity at human LPA2 receptor expressed in CHO cells assessed as inhibition of LPA-induced calcium mobilization pretreated for 15 mins followed by LPA stimulation by FLIPR analysis

in vivo [16] = conditions: C57BL/6J, mouse, po, 26.5 mg/kg; remark: listed apart in the source
Description: Oral bioavailability in C57BL/6J mouse at 26.5 mg/kg by LC-MS/MS analysis

microsomal CLint at 0.75 h, 0.5 µM (in vitro [1]): 34 µL/min/mg
fraction unbound at 5 h, 0.5 µM [2]: < 0.01
fraction unbound at 5 h, 5 µM [3]: 0.0175
Fa (in vivo [4]): 97%
AUC(0-t) (in vivo [5]): 50.5 µg·h/mL
fraction unbound at 5 h, 0.5 µM [6]: 0.0011
AUC(0-t) (in vivo [7]): 280 µg·h/mL
Cmax (in vivo [8]): 15400 ng/mL
Cmax (in vivo [9]): 71500 ng/mL
IC50 [10]: 4.17 nM
half-life (in vivo [11]): 1.67 h
IC50 [12]: > 50100 nM
efflux ratio at 1 h, 10 µM [13]: 5.7
microsomal CLint at 0.75 h, 0.5 µM (in vitro [14]): 49 µL/min/mg
IC50 [15]: 2.45 nM
bioavailability (in vivo [16]): 87%
SMILES: COC(=O)Nc1nc(C)c(S(=O)(=O)N2CCN(C[C@H](C)Nc3ncnc4c(-c5ccc(C)nc5)cccc34)CC2)s1
